Marks after values point to notes of the source that are not given here.
How the values were obtained:
Rat chondrocyte = experiment: Protective effect of TSL-4 on chondrocytes injured by hydrogen peroxide (MTT); type: cell-based
Description: The culture medium was replaced to different experimental groups in the following day with a dose volume of 100 μl and incubated for 24 or 48 hours respectively.
At the end of incubation according to the experimental plan, 10 μL of 5 mg/ml MTT was added to each experimental group based upon 1/10 of the cell culture volume, so that the cells were incubated with MTT in the incubator for 4 hours. Afterwards, supernatant was carefully discarded, and 200 μL of dimethyl sulfoxide (DMSO) was added for mixing well, then the absorbance was measured on a microplate reader at a test wavelength of 570 nm. Calculating formula of relative cell activity ratio (%): a mean value of the absorbance (per well) in the experimental group/the absorbance in the control group multiplies by 100%. […] The difference between each group was analyzed by Prism 7.0, and tested by one-way ANOVA. *P<0.05 means statistical difference, **P<0.01 means significant statistical difference, and […] means extremely significant statistical difference.
In order to detect the protective effect of TSL-4 on chondrocytes injured by hydrogen peroxide, the experiment was divided into three groups control group (no hydrogen peroxide and TSL-4, only adding fresh culture medium), hydrogen peroxide modeling group (only adding hydrogen peroxide cell culture medium containing different concentrations) and TSL-4 administration group (containing hydrogen peroxide). In order to detect the protective effect of TSL-4 on chondrocytes injured by hydrogen peroxide, TSL-4 and hydrogen peroxide were cultured with chondrocytes for 24 hours. The dosage of hydrogen peroxide was selected within 0.1, 0.25, 0.5 and 1 mM; the TSL-4 dosage was 0.23, 1.17, 5.86, 29.3
In the presence of different doses of H2O2, TSL-4 at proper concentration and chondrocytes were cultured for 24 h, and the relative cell viability in each administration group (relative absorbance percentage to the control group) was expressed as the following X±SD.
In the presence of the molding agent H2O2 at 0.25, 0.35, 0.5 mM, 1.17 and 5.86 μM TSL-4 were cultured with chondrocytes for 24 h, and the relative cell viability in each administration group (relative absorbance percentage to the control group) was expressed as the followings X±SD.

type-II CIA mice = experiment: Chronic inflammation model of type-II CIA in mice; type: in vivo, Balb/c mice; conditions: for ankle width / arthritis scoring / paw circumference / weight of mice / paw weight / spleen weight: day 60; for ankle width: model G2 4.83±0.20; for arthritis scoring: model G2 11.5±1.7; for paw circumference: model G2 13.62; for weight of mice: model G2 19.5±1.6; for paw weight: model G2 219.3±20.6; for spleen weight: model G2 114.6±14.5
Description: Experimental method: Balb/c mice were taken and immunized for the first time. The concentration of type-II bovine collagen was 4 mg/mL. On the day of the experiment (day 0), complete Freund's adjuvant (CFA) and CII solution were mixed evenly in equal volume and emulsified. Excepting for the normal control group of Balb/c mice, mice in each group were sensitized by intracutaneous injection of 50 μL emulsifier at the end of tails. 21 days later, mice were re-immunized with the same dose of emulsifier at the end of tails, and incomplete Freund's adjuvant (IFA) served as an adjuvant at this time. Redness and swelling other arthritic symptoms appeared on toe joints of mice models approximately on the 29th day of the experiment, indicating successful modeling.
Animals in the modeling group on the 30th day of the experiment were randomly divided into:
There were 12 groups in total, and there were 8 pieces of mice in remaining each group excepting for 12 pieces in G1 (normal control group) and G2 (model group).
Measurement of mice weight: mice were weighed by an electronic balance every two days.
Measurement of sole thickness: the thickness of left, right and hind soles for each mouse was measured by a vernier caliper every two days.
Measurement of ankle joint width: the width of left and right ankle joints for each mouse was measured by vernier caliper every two days.
Arthritis index (AI) score: the severity of arthritis for each mouse was evaluated by a paw joint scoring method. 0: no redness and swelling; 1: redness and swelling of little toe joints; 2: redness and swelling of toe joints and toes; 3: redness and swelling of the portion below ankle joints; 4: redness and swelling of toe joints, toes and ankle joints. Scoring was performed once every two days until the end of the experiment.
Blood was collected from the orbit and serum was separated. After mice were killed by cervical dislocation, spleen and thymus were separated and weighed to calculate a spleen coefficient, and then the spleen and thymus were fixed in formalin stationary liquid.

[1] = G6 TSL-4 50 mg/kg SC 1 time/5 d, 3 times
[2] = G7 TSL-4 25 mg/kg SC 1 time/5 d, 3 times
[3] = G8 TSL-4 25 mg/kg SC 1 time/7 d, 2 times
[4] = G10 TSL-4 12.5 mg/kg SC 1 time/5 d, 3 times

mIgG4-Fc-(GGGGS)3-HM-3 [TSL-4]
relative cell viability (relative absorbance percentage to the control group) (Rat chondrocyte; 0.23 μM TSL-4, 0.1 mM H2O2, 24 h, 0 μM 106.87 ± 9.52): 84.23 ± 20.42*** | relative cell viability (relative absorbance percentage to the control group) (Rat chondrocyte; 0.23 μM TSL-4, 0.25 mM H2O2, 24 h, 0 μM 70.96 ± 11.61): 71.42 ± 6.74 | relative cell viability (relative absorbance percentage to the control group) (Rat chondrocyte; 0.23 μM TSL-4, 0.5 mM H2O2, 24 h, 0 μM 1.68 ± 0.82): 3.17 ± 1.45 | relative cell viability (relative absorbance percentage to the control group) (Rat chondrocyte; 0.23 μM TSL-4, 1 mM H2O2, 24 h, 0 μM 3.57 ± 0.60): 0.89 ± 0.32 | relative cell viability (relative absorbance percentage to the control group) (Rat chondrocyte; 1.17 μM TSL-4, 0.1 mM H2O2, 24 h, 0 μM 106.87 ± 9.52): 100.01 ± 5.02 | relative cell viability (relative absorbance percentage to the control group) (Rat chondrocyte; 1.17 μM TSL-4, 0.25 mM H2O2, 24 h, 0 μM 70.96 ± 11.61): 85.11 ± 8.08* | relative cell viability (relative absorbance percentage to the control group) (Rat chondrocyte; 1.17 μM TSL-4, 0.5 mM H2O2, 24 h, 0 μM 1.68 ± 0.82): 16.56 ± 5.91* | relative cell viability (relative absorbance percentage to the control group) (Rat chondrocyte; 1.17 μM TSL-4, 1 mM H2O2, 24 h, 0 μM 3.57 ± 0.60): 1.14 ± 1.07 | relative cell viability (relative absorbance percentage to the control group) (Rat chondrocyte; 5.86 μM TSL-4, 0.1 mM H2O2, 24 h, 0 μM 106.87 ± 9.52): 102.36 ± 9.75 | relative cell viability (relative absorbance percentage to the control group) (Rat chondrocyte; 5.86 μM TSL-4, 0.25 mM H2O2, 24 h, 0 μM 70.96 ± 11.61): 86.35 ± 4.20* | relative cell viability (relative absorbance percentage to the control group) (Rat chondrocyte; 5.86 μM TSL-4, 0.5 mM H2O2, 24 h, 0 μM 1.68 ± 0.82): 10.27 ± 7.08 | relative cell viability (relative absorbance percentage to the control group) (Rat chondrocyte; 5.86 μM TSL-4, 1 mM H2O2, 24 h, 0 μM 3.57 ± 0.60): 1.21 ± 0.70 | relative cell viability (relative absorbance percentage to the control group) (Rat chondrocyte; 29.3 μM TSL-4, 0.1 mM H2O2, 24 h, 0 μM 106.87 ± 9.52): 76.46 ± 5.45**** | relative cell viability (relative absorbance percentage to the control group) (Rat chondrocyte; 29.3 μM TSL-4, 0.25 mM H2O2, 24 h, 0 μM 70.96 ± 11.61): 59.72 ± 3.49 | relative cell viability (relative absorbance percentage to the control group) (Rat chondrocyte; 29.3 μM TSL-4, 0.5 mM H2O2, 24 h, 0 μM 1.68 ± 0.82): 3.87 ± 6.00 | relative cell viability (relative absorbance percentage to the control group) (Rat chondrocyte; 29.3 μM TSL-4, 1 mM H2O2, 24 h, 0 μM 3.57 ± 0.60): 0.43 ± 0.53 | viability of chondrocytes stimulated by H2O2 (Rat chondrocyte; 0.23/29.3 μM TSL-4, 0.1 mM H2O2): relatively significantly inhibiting effect | relative cell viability (relative absorbance percentage to the control group) (Rat chondrocyte; repeated trial: 1.17 μM TSL-4, 0.25 mM H2O2, 24 h, 0 μM 78.77 ± 7.45): 85.31 ± 7.36 | relative cell viability (relative absorbance percentage to the control group) (Rat chondrocyte; repeated trial: 1.17 μM TSL-4, 0.35 mM H2O2, 24 h, 0 μM 63.96 ± 6.46): 68.54 ± 3.62 | relative cell viability (relative absorbance percentage to the control group) (Rat chondrocyte; repeated trial: 1.17 μM TSL-4, 0.5 mM H2O2, 24 h, 0 μM 37.10 ± 6.53): 41.46 ± 2.08 | relative cell viability (relative absorbance percentage to the control group) (Rat chondrocyte; repeated trial: 5.86 μM TSL-4, 0.25 mM H2O2, 24 h, 0 μM 78.77 ± 7.45): 87.36 ± 7.85 | viability of chondrocytes injured by H2O2 (Rat chondrocyte; repeated trial: 5.86 μM TSL-4, 0.35 mM H2O2): significantly improve the viability of chondrocytes | relative cell viability (relative absorbance percentage to the control group) (Rat chondrocyte; repeated trial: 5.86 μM TSL-4, 0.35 mM H2O2, 24 h, 0 μM 63.96 ± 6.46): 73.29 ± 4.39 | relative cell viability (relative absorbance percentage to the control group) (Rat chondrocyte; repeated trial: 5.86 μM TSL-4, 0.5 mM H2O2, 24 h, 0 μM 37.10 ± 6.53): 45.07 ± 6.36 | ankle width (type-II CIA mice; [1]): 3.96±0.09 mm | arthritis scoring (type-II CIA mice; [1]): 6.5±1.1 | paw circumference (type-II CIA mice; [1]): 10.80±0.26 mm | weight of mice (type-II CIA mice; [1]): 20.8 ± 1.8 g | paw weight (type-II CIA mice; [1]): 176.2 ± 8.9 mg | ankle width (type-II CIA mice; [2]): 3.98±0.08 mm | arthritis scoring (type-II CIA mice; [2]): 6.6±1.1 | paw circumference (type-II CIA mice; [2]): 10.87±0.14 mm | weight of mice (type-II CIA mice; [2]): 21.1 ± 1.6 g | spleen weight (type-II CIA mice; [2]): 95.1 ± 9.5 mg | paw weight (type-II CIA mice; [2]): 176.4 ± 9.7 mg | ankle width (type-II CIA mice; [3]): 4.00±0.16 mm | arthritis scoring (type-II CIA mice; [3]): 7.1±0.6 | paw circumference (type-II CIA mice; [3]): 10.97±0.32 mm | weight of mice (type-II CIA mice; [3]): 20.8 ± 1.7 g | spleen weight (type-II CIA mice; [3]): 95.8 ± 11.4 mg | paw weight (type-II CIA mice; [3]): 177.1 ± 7.8 mg | ankle width (type-II CIA mice; [4]): 4.26±0.13 mm | arthritis scoring (type-II CIA mice; [4]): 8.6±1.8 | paw circumference (type-II CIA mice; [4]): 11.64±0.19 mm | weight of mice (type-II CIA mice; [4]): 21.5 ± 1.5 g | spleen weight (type-II CIA mice; [4]): 97.5 ± 5.1 mg | therapeutic effect compared with group G3 (positive Adalimumab group) (type-II CIA mice; groups G4 (HM-3), G10 (TSL-4 12.5 mg/kg once for 5 days, 3 times)): slightly lower than that of the group G3 | therapeutic effect compared with group G3 (positive Adalimumab group) (type-II CIA mice; groups G5 (mPEG-SC-HM-3), G6, G7, G8 (TSL-4)): better than the group G3
